# Experimental data: the kinase profiling compilation of Christmann-Franck et al. (2016)
# Legend:
# Assay in all cases: radiometric filter-binding kinase assay
# [1] = test system: AKT2 (human), P31751 [S474D]
# AURKA (human) = AURKA (human) (UniProt O14965)
# AURKB (human) = AURKB (human) (UniProt Q96GD4)
# CHEK1 (human) = CHEK1 (human) (UniProt O14757)
# CSNK1D (human) = CSNK1D (human) (UniProt P48730)
# EEF2K (human) = EEF2K (human) (UniProt O00418)
# EPHB1 (human) = EPHB1 (human) (UniProt P54762)
# EPHB4 (human) = EPHB4 (human) (UniProt P54760)
# FGFR1 (human) = FGFR1 (human) (UniProt P11362)
# FLT1 (human) = FLT1 (human) (UniProt P17948)
# GCK (human) = GCK (human) (UniProt Q12851)
# GSK3B (human) = GSK3B (human) (UniProt P49841)
# HIPK1 (human) = HIPK1 (human) (UniProt Q86Z02)
# HIPK2 (human) = HIPK2 (human) (UniProt Q9H2X6)
# IGF1R (human) = IGF1R (human) (UniProt P08069)
# MAP2K2 (human) = MAP2K2 (human) (UniProt P36507)
# MAP3K1 (human) = MAP3K1 (human) (UniProt Q13233)
# MAP3K5 (human) = MAP3K5 (human) (UniProt Q99683)
# MAP3K9 (human) = MAP3K9 (human) (UniProt P80192)
# MAPK1 (human) = MAPK1 (human) (UniProt P28482)
# MAPK10 (human) = MAPK10 (human) (UniProt P53779)
# MAPK13 (human) = MAPK13 (human) (UniProt O15264)
# MAPK9 (human) = MAPK9 (human) (UniProt P45984)
# MARK4 (human) = MARK4 (human) (UniProt Q96L34)
# MELK (human) = MELK (human) (UniProt Q14680)
# MYLK (human) = MYLK (human) (UniProt Q15746)
# [2] = test system: PAK2 (human), Q13177 [T402E]
# PAK6 (human) = PAK6 (human) (UniProt Q9NQU5)
# PKN2 (human) = PKN2 (human) (UniProt Q16513)
# PRKCZ (human) = PRKCZ (human) (UniProt Q05513)
# SRC (human) = SRC (human) (UniProt P12931)
# [3] = molecular target: STK11 CAB39 STRADA (human) (UniProt Q9Y376+Q7RTN6+Q15831)
# SYK (human) = SYK (human) (UniProt P43405)
# TAOK1 (human) = TAOK1 (human) (UniProt Q7L7X3)
# TTK (human) = TTK (human) (UniProt P33981)
# YES1 (human) = YES1 (human) (UniProt P07947)
# MAPK1 (human), sequence (P28482 whole entry, looked up): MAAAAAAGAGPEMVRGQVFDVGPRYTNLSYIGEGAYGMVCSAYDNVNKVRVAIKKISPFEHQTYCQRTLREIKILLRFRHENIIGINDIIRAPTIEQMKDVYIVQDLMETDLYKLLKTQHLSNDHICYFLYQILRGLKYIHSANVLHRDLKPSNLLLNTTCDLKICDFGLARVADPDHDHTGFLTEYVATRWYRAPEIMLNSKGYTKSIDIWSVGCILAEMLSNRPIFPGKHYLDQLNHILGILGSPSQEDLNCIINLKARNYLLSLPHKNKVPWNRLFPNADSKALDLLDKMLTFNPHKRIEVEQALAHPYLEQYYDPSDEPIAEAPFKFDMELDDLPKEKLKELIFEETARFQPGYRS
# IGF1R (human), sequence (P08069 whole entry, looked up): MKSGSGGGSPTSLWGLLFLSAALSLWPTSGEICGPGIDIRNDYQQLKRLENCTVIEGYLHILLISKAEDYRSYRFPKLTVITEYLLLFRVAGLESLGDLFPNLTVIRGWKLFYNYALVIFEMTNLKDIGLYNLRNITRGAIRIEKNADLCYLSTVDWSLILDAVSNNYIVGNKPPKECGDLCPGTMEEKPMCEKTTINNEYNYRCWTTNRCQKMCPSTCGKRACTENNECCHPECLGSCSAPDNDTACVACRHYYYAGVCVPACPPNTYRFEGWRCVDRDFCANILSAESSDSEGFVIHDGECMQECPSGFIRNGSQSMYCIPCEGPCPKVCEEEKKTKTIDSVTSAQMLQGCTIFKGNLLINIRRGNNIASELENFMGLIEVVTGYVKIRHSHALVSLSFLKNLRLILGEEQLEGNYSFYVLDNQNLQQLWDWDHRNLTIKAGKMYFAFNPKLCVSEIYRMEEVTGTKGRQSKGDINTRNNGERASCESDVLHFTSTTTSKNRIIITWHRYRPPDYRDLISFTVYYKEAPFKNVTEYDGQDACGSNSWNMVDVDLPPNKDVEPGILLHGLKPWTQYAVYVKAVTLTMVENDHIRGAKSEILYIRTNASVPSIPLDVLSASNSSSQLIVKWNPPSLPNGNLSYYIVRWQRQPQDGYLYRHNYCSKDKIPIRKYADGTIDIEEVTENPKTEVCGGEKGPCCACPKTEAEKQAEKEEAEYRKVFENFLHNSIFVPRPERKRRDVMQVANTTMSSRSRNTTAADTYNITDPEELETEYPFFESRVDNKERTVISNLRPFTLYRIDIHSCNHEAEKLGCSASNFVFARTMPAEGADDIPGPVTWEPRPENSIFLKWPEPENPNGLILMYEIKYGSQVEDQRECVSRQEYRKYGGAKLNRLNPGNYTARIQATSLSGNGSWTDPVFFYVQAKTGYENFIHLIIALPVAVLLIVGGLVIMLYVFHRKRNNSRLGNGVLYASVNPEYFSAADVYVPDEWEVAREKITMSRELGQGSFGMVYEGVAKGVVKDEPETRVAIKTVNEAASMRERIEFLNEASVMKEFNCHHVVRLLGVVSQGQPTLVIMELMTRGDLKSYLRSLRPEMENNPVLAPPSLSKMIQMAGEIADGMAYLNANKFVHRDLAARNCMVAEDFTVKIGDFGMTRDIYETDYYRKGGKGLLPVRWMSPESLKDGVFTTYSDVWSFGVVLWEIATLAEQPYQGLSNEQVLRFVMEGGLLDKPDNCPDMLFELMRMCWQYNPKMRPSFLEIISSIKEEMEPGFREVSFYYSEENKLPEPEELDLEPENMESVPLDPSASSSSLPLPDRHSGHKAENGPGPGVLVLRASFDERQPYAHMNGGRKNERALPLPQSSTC
# PRKCZ (human), sequence (Q05513 whole entry, looked up): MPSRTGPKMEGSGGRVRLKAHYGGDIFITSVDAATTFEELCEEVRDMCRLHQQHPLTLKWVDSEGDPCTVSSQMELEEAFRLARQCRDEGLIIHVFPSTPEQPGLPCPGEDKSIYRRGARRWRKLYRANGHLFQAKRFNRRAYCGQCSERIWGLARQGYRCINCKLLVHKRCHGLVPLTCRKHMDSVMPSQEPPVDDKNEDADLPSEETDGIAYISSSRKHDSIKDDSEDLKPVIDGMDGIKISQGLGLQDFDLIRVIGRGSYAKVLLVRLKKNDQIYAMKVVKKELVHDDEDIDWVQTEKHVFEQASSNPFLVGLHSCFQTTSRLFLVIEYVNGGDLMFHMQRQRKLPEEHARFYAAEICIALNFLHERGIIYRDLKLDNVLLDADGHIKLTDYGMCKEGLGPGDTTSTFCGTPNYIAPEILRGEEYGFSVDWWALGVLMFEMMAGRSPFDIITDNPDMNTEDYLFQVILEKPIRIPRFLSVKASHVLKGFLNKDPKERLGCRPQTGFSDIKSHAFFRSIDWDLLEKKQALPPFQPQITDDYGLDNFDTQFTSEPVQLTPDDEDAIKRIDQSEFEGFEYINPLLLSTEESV
# TTK (human), sequence (P33981 whole entry, looked up): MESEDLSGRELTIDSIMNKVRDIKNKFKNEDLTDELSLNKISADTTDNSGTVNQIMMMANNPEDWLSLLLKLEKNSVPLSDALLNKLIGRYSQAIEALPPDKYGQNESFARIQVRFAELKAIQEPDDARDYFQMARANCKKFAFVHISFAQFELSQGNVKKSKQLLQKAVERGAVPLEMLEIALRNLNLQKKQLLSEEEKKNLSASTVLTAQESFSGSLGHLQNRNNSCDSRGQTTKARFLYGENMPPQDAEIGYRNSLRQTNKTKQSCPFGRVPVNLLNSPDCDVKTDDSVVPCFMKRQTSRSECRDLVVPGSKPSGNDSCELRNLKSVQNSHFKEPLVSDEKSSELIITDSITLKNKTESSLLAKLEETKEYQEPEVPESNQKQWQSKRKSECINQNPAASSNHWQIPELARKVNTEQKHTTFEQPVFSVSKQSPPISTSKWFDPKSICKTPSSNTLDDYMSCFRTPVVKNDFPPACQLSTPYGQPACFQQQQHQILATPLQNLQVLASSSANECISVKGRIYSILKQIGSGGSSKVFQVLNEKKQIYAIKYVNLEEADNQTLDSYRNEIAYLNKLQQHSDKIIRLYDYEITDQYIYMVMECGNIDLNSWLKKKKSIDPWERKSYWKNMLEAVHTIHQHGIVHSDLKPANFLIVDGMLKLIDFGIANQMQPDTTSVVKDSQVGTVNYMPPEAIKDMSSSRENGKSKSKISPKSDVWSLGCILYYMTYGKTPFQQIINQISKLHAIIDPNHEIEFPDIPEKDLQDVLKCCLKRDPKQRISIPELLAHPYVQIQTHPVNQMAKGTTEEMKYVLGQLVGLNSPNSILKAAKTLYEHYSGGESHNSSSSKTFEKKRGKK
# HIPK2 (human), sequence (Q9H2X6 whole entry, looked up): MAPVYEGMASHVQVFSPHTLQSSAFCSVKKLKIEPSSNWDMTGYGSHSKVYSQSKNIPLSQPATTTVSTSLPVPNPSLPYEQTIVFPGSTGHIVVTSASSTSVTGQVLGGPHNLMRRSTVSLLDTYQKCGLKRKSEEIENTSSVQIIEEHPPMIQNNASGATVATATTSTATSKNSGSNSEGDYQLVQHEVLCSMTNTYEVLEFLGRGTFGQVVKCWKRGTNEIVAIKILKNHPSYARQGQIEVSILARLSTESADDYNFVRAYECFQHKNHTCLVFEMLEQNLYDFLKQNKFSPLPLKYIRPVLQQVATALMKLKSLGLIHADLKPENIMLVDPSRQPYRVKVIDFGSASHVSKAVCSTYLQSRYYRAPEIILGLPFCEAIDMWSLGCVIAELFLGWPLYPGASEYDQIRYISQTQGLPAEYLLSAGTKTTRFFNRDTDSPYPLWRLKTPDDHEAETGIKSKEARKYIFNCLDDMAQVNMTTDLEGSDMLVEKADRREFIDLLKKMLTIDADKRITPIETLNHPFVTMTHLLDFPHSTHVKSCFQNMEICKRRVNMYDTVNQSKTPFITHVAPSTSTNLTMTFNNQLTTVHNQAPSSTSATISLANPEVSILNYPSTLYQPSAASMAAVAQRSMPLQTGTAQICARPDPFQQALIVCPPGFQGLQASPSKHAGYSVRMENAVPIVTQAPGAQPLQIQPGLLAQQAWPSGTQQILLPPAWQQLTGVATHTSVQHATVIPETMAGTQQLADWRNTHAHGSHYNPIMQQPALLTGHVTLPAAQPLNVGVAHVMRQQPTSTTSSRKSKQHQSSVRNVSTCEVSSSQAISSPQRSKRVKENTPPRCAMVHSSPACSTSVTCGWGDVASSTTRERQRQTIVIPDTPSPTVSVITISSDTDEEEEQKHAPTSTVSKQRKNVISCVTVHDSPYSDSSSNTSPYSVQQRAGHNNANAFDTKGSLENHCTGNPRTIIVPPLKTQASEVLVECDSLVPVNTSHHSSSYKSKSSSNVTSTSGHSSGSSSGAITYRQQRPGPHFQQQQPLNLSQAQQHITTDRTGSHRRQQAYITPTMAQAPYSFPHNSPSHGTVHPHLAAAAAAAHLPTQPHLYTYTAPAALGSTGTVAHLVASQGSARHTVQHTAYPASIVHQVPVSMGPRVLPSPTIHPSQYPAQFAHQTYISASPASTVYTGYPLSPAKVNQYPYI
# AURKA (human), sequence (O14965 whole entry, looked up): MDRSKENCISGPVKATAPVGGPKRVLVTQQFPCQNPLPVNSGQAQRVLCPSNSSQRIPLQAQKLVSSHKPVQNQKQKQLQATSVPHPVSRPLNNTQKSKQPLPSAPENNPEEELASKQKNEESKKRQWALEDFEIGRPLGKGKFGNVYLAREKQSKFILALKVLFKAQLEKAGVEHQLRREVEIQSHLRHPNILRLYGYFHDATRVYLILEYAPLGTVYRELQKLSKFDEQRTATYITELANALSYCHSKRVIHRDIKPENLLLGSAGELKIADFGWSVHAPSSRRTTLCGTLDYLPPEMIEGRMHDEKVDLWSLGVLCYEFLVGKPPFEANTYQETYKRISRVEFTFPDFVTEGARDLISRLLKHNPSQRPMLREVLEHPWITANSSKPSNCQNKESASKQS
smiles,measurement,setting,value
O=C(N[C@@H](COc1ccc2[nH]c(=O)[nH]c2c1)c1ccccc1)c1cccn(Cc2ccc(F)c(F)c2)c1=O,residual activity,[1]; compound 0.1 µM,98%
same,residual activity,[1]; compound 1.0 µM,96%
same,residual activity,[1]; compound 10.0 µM,77%
same,residual activity,AURKA (human); compound 0.1 µM,110%
same,residual activity,AURKA (human); compound 1.0 µM,110%
same,residual activity,AURKA (human); compound 10.0 µM,103%
same,residual activity,AURKB (human); compound 0.1 µM,105%
same,residual activity,AURKB (human); compound 1.0 µM,104%
same,residual activity,AURKB (human); compound 10.0 µM,64%
same,residual activity,CHEK1 (human); compound 0.1 µM,96%
same,residual activity,CHEK1 (human); compound 1.0 µM,94%
same,residual activity,CHEK1 (human); compound 10.0 µM,95%
same,residual activity,CSNK1D (human); compound 0.1 µM,103%
same,residual activity,CSNK1D (human); compound 1.0 µM,110%
same,residual activity,CSNK1D (human); compound 10.0 µM,113%
same,residual activity,EEF2K (human); compound 0.1 µM,95%
same,residual activity,EEF2K (human); compound 1.0 µM,103%
same,residual activity,EEF2K (human); compound 10.0 µM,107%
same,residual activity,EPHB1 (human); compound 0.1 µM,87%
same,residual activity,EPHB1 (human); compound 1.0 µM,88%
same,residual activity,EPHB1 (human); compound 10.0 µM,90%
same,residual activity,EPHB4 (human); compound 1.0 µM,85%
same,residual activity,EPHB4 (human); compound 10.0 µM,87%
same,residual activity,FGFR1 (human); compound 0.1 µM,96%
same,residual activity,FGFR1 (human); compound 1.0 µM,97%
same,residual activity,FGFR1 (human); compound 10.0 µM,75%
same,residual activity,FLT1 (human); compound 0.1 µM,106%
same,residual activity,FLT1 (human); compound 1.0 µM,100%
same,residual activity,GCK (human); compound 0.1 µM,102%
same,residual activity,GCK (human); compound 1.0 µM,101%
same,residual activity,GCK (human); compound 10.0 µM,94%
same,residual activity,GSK3B (human); compound 0.1 µM,97%
same,residual activity,GSK3B (human); compound 1.0 µM,96%
same,residual activity,GSK3B (human); compound 10.0 µM,64%
same,residual activity,HIPK1 (human); compound 0.1 µM,99%
same,residual activity,HIPK1 (human); compound 1.0 µM,100%
same,residual activity,HIPK1 (human); compound 10.0 µM,86%
same,residual activity,HIPK2 (human); compound 0.1 µM,92%
same,residual activity,HIPK2 (human); compound 1.0 µM,96%
same,residual activity,HIPK2 (human); compound 10.0 µM,90%
same,residual activity,IGF1R (human); compound 0.1 µM,105%
same,residual activity,IGF1R (human); compound 1.0 µM,105%
same,residual activity,IGF1R (human); compound 10.0 µM,103%
same,residual activity,MAP2K2 (human); compound 0.1 µM,121%
same,residual activity,MAP2K2 (human); compound 1.0 µM,124%
same,residual activity,MAP2K2 (human); compound 10.0 µM,135%
same,residual activity,MAP3K1 (human); compound 0.1 µM,110%
same,residual activity,MAP3K1 (human); compound 1.0 µM,114%
same,residual activity,MAP3K1 (human); compound 10.0 µM,112%
same,residual activity,MAP3K5 (human); compound 0.1 µM,110%
same,residual activity,MAP3K5 (human); compound 1.0 µM,105%
same,residual activity,MAP3K5 (human); compound 10.0 µM,92%
same,residual activity,MAP3K9 (human); compound 0.1 µM,119%
same,residual activity,MAP3K9 (human); compound 1.0 µM,102%
same,residual activity,MAP3K9 (human); compound 10.0 µM,50%
same,residual activity,MAPK1 (human); compound 0.1 µM,102%
same,residual activity,MAPK1 (human); compound 1.0 µM,100%
same,residual activity,MAPK1 (human); compound 10.0 µM,101%
same,residual activity,MAPK10 (human); compound 0.1 µM,101%
same,residual activity,MAPK10 (human); compound 1.0 µM,90%
same,residual activity,MAPK10 (human); compound 10.0 µM,101%
same,residual activity,MAPK13 (human); compound 0.1 µM,91%
same,residual activity,MAPK13 (human); compound 1.0 µM,97%
same,residual activity,MAPK13 (human); compound 10.0 µM,94%
same,residual activity,MAPK9 (human); compound 0.1 µM,93%
same,residual activity,MAPK9 (human); compound 1.0 µM,97%
same,residual activity,MAPK9 (human); compound 10.0 µM,95%
same,residual activity,MARK4 (human); compound 0.1 µM,150%
same,residual activity,MARK4 (human); compound 1.0 µM,143%
same,residual activity,MARK4 (human); compound 10.0 µM,83%
same,residual activity,MELK (human); compound 0.1 µM,97%
same,residual activity,MELK (human); compound 1.0 µM,110%
same,residual activity,MELK (human); compound 10.0 µM,99%
same,residual activity,MYLK (human); compound 0.1 µM,97%
same,residual activity,MYLK (human); compound 1.0 µM,97%
same,residual activity,MYLK (human); compound 10.0 µM,89%
same,residual activity,[2]; compound 0.1 µM,113%
same,residual activity,[2]; compound 1.0 µM,109%
same,residual activity,[2]; compound 10.0 µM,79%
same,residual activity,PAK6 (human); compound 0.1 µM,102%
same,residual activity,PAK6 (human); compound 1.0 µM,102%
same,residual activity,PAK6 (human); compound 10.0 µM,89%
same,residual activity,PKN2 (human); compound 0.1 µM,108%
same,residual activity,PKN2 (human); compound 1.0 µM,113%
same,residual activity,PKN2 (human); compound 10.0 µM,103%
same,residual activity,PRKCZ (human); compound 0.1 µM,104%
same,residual activity,PRKCZ (human); compound 1.0 µM,106%
same,residual activity,PRKCZ (human); compound 10.0 µM,88%
same,residual activity,SRC (human); compound 0.1 µM,103%
same,residual activity,SRC (human); compound 1.0 µM,100%
same,residual activity,SRC (human); compound 10.0 µM,75%
same,residual activity,[3]; compound 0.1 µM,102%
same,residual activity,[3]; compound 1.0 µM,100%
same,residual activity,[3]; compound 10.0 µM,93%
same,residual activity,SYK (human); compound 0.1 µM,99%
same,residual activity,SYK (human); compound 1.0 µM,88%
same,residual activity,SYK (human); compound 10.0 µM,82%
same,residual activity,TAOK1 (human); compound 0.1 µM,111%
same,residual activity,TAOK1 (human); compound 1.0 µM,126%
same,residual activity,TAOK1 (human); compound 10.0 µM,119%
same,residual activity,TTK (human); compound 0.1 µM,99%
same,residual activity,TTK (human); compound 1.0 µM,100%
same,residual activity,TTK (human); compound 10.0 µM,95%
same,residual activity,YES1 (human); compound 0.1 µM,104%
same,residual activity,YES1 (human); compound 1.0 µM,105%
same,residual activity,YES1 (human); compound 10.0 µM,95%
